Experiments:
Format in all cases: in vivo, Sprague-Dawley rats
[1] = test system: thrombin/antithrombin III complex (TAT); assay: Thrombin/antithrombin III complex (TAT) in plasma after endotoxin
Description: (§1) The body temperature was maintained at. 38° C. throughout the experiment by external heating.
[…]. […] Sham operated animals received saline instead of endotoxin.

rats given endotoxin = assay: 125I-fibrinogen in the blood after endotoxin (experimental endotoxaemia); conditions: high dose heparin (group VIII); melagatran groups IV-VI; melagatran with dexamethasone groups XVII-XX
Description: as §1
(§2) Sham operated animals received saline instead of endotoxin.
Adjustment for multiplicity was done using Scheffe. […] Corrections for multiple comparisons were made according to Bonferroni.

[2] = Plasma concentration of melagatran (LC-MS)
Description: as §2

For `C[C@@H]1C[C@H]2[C@@H]3CCC4=CC(=O)C=C[C@]4(C)[C@@]3(F)[C@@H](O)C[C@]2(C)[C@@]1(O)C(=O)CO` [dexamethasone, Dexamethasone], the “TAT (thrombin generation)” value ([1]; dexamethasone groups (discussion)) was “below 8 μg/l”.
For `N=C(N)c1ccc(CNC(=O)[C@@H]2CCN2C(=O)[C@H](NCC(=O)O)C2CCCCC2)cc1` [melagatran, HOOC—CH2—(R)Cgl-Aze-Pab-H], the fibrinogen consumption (rats given endotoxin) was “completely prevented”, the “mean plasma concentration of melagatran during the 5 h experiment” value (shortened to “mean plasma concentration”) ([2]; group IV, Mela low 0.13 μmol/kg bolus + 0.32 μmol/kg/h iv) was 0.78 ± 0.08 µmol/L and the “plasma concentration of melagatran combined with heparin” value ([2]; group IX, Hep low + Mela low) was 0.72 ± 0.09 µmol/L. For the same molecule, the “mean plasma concentration” value ([2]; group V, Mela med 0.4 μmol/kg bolus + 1.0 μmol/kg/h iv) was 2.83+0.45 μmol/l, the “mean plasma concentration” value ([2]; group VI, Mela high 1.3 μmol/kg bolus + 3.2 μmol/kg/h iv) was 6.88 ± 0.42 µmol/L and the “plasma concentration of melagatran combined with heparin” value ([2]; group X, Hep low + Mela med) was 1.97 ± 0.16 µmol/L. The “plasma concentration of melagatran in combination with dexamethasone” value (shortened to “plasma concentration … with dexamethasone”) ([2]; high dose group, first value (group XVIII, Dexa low 1 mg/kg + melagatran 0.4 μmol/kg + 1.0 μmol/kg/h)) was 1.49 ± 0.13 µmol/L, the “plasma concentration … with dexamethasone” value ([2]; high dose group, second value (group XX, Dexa high 10 mg/kg + melagatran 0.4 μmol/kg + 1.0 μmol/kg/h)) was 1.28 ± 0.1 µmol/L and the “plasma concentration … with dexamethasone” value ([2]; low dose group, first value (group XVII, Dexa low 1 mg/kg + melagatran 0.13 μmol/kg + 0.32 μmol/kg/h)) was 0.48 ± 0.01 µmol/L. The “plasma concentration … with dexamethasone” value ([2]; low dose group, second value (group XIX, Dexa high 10 mg/kg + melagatran 0.13 μmol/kg + 0.32 μmol/kg/h)) was 0.46 ± 0.02 µmol/L.
For `NC[C@H]1CC[C@H](C(=O)O)CC1` [tranexamic acid], the TAT ([1]; measured in some animals, group III, groups XV-XX) was 55.5 ± 6.6 µg/L.
